Reference: ChEMBL document CHEMBL4184188, “Characterization of tyrosinase inhibitory constituents from the aerial parts of Humulus japonicus using LC-MS/MS coupled online assay” (Bioorg Med Chem, 2018)
Calls of active or inactive are those of the source. No cut-off for these calls is given here.

biological target: T1, Tyrosinase (Agaricus bisporus) (UniProt O42713); test: Inhibition of mushroom tyrosinase using tyrosine as substrate pretreated for 5 mins followed by substrate addition measured after 20 mins by ELISA
T1 sequence (whole entry): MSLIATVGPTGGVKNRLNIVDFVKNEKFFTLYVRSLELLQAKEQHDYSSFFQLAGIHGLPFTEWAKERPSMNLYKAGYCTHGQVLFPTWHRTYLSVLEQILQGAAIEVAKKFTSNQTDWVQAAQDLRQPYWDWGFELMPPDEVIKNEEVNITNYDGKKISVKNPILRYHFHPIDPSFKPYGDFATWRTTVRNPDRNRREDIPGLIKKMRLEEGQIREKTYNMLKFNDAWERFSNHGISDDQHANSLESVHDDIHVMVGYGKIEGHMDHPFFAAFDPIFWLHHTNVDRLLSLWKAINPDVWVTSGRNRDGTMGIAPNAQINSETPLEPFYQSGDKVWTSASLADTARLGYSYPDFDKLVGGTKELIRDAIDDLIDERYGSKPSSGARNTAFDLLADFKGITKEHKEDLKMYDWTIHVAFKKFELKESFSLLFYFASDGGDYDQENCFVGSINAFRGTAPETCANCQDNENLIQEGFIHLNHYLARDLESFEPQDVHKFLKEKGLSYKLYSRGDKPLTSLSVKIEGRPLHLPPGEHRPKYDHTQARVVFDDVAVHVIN

| SMILES | inhibition |
| --- | --- |
| COc1cc(/C=C\C(=O)NCCc2ccc(O)cc2)ccc1O | inactive |
| CC(=O)/C=C/[C@@]12O[C@]1(C)C[C@@H](O)CC2(C)C | inactive |
| CCOC(C)=O | Active |
| CC(=O)/C=C/[C@H]1C(C)=C[C@H](O)CC1(C)C | inactive |
| COc1cc2ccc(=O)oc2cc1O | Active |
| CC1(C)C[C@@H](O)C[C@]2(C)OC(=O)C=C12 | inactive |
| O=C(O)c1ccccc1 | Active |
| O=C(O)c1ccc(O)cc1 | Active |
| O=c1cc(-c2ccc(O)cc2)oc2c([C@@H]3O[C@H](CO)[C@@H](O)[C@H](O)[C@H]3O)c(O)cc(O)c12 | inactive |
| O=c1cc[nH]c(=O)[nH]1 | Active |
| O=C(O)c1c[nH]c2ccccc12 | Active |
| C=CCc1ccc(O[C@@H]2O[C@H](CO)[C@@H](O)[C@H](O)[C@H]2O)c(OC)c1 | inactive |
| COC(=O)c1c[nH]c2ccccc12 | Active |
| COc1cc(C(C)=O)ccc1O | inactive |
| NC(=O)/C=C/c1ccc(O)cc1 | Active |
| COc1cc2oc(=O)ccc2cc1O | Active |
| O=C(/C=C/c1ccc(O)cc1)NCCc1ccc(O)cc1 | Active |

| SMILES | inhibition |
| --- | --- |
| COc1cc(/C=C/C(=O)NCCc2ccc(O)cc2)ccc1O | inactive |
| COc1ccc(C=O)cc1O | inactive |
| O=C(/C=C\c1ccc(O)cc1)NCCc1ccc(O)cc1 | Active |
| CC1=CC(=O)CC(C)(C)[C@@]1(O)CC[C@H](C)O | inactive |
| CC(=O)/C=C/[C@@]1(O)C(C)=CC(=O)CC1(C)C | inactive |
| O=Cc1ccccc1 | Active |
| COc1ccc(C(C)=O)cc1OC | inactive |
| CC1(C)C[C@@H](O)C[C@@]2(C)OC(=O)C=C12 | inactive |
| COc1cc(C(=O)O)ccc1O | inactive |
| NC(=O)c1cccnc1 | Active |
| C/C(=C\COC(=O)c1ccccc1)CO[C@@H]1O[C@H](CO)[C@@H](O)[C@H](O)[C@H]1O | Active |
| O=c1cc(-c2ccc(O)cc2)oc2cc(O)cc(O)c12 | Active |
| O=Cc1c[nH]c2ccccc12 | Active |
| CC1=CC(=O)CC(C)(C)/C1=C/C[C@@H](C)O | inactive |
| O=c1cc(-c2ccc(O)c(O)c2)oc2cc(O)cc(O)c12 | Active |
| C/C(=C\COC(=O)c1ccccc1O)CO[C@@H]1O[C@H](CO)[C@@H](O)[C@H](O)[C@H]1O | Active |
| CC(=O)C=C=C1C(C)(C)C[C@H](O)C[C@@]1(C)O | inactive |

biological target: T1, Tyrosinase (Agaricus bisporus); test: Inhibition of mushroom tyrosinase at 100 uM using tyrosine as substrate pretreated for 5 mins followed by substrate addition measured after 20 mins by ELISA relative to control

| SMILES | inhibition [%] |
| --- | --- |
| COc1cc2ccc(=O)oc2cc1O | > 30 |
| COc1cc2oc(=O)ccc2cc1O | > 30 |
| O=Cc1c[nH]c2ccccc12 | > 30 |
| C/C(=C\COC(=O)c1ccccc1O)CO[C@@H]1O[C@H](CO)[C@@H](O)[C@H](O)[C@H]1O | > 30 |
